From ChEMBL document CHEMBL3217502, “Synthesis of dual AChE/5-HT4 receptor multi-target directed ligands” (Medchemcomm, 2012) come the findings set out here.

One test has as its target Acetylcholinesterase (Electrophorus electricus, UniProt O42275). The test can be described thus: Inhibition of electric eel AChE using acetylthiocholine iodide as substrate preincubated for 5 mins before substrate addition measured for 10 mins by Ellman's method. Background: Ellman's reagent forms a yellow product with free thiols.
Test [1] has as its target 5-hydroxytryptamine receptor 4 (Cavia porcellus, UniProt O70528). The test can be described thus: Displacement of [3H]-GR113808 from guinea pig 5HT4 receptor by Grossman's method. Background: Loss of bound radioactivity is the signal in a displacement assay; it reports binding, not function.
For test [2], the target named is 5-hydroxytryptamine receptor 4 (Homo sapiens) (UniProt Q13639). The test is described as follows: Displacement of [3H]-GR113808 from human 5HT4E receptor at 10^-8 M after 30 mins by liquid scintillation counting.
Sequence of 5-hydroxytryptamine receptor 4 (Homo sapiens) (Q13639 whole entry): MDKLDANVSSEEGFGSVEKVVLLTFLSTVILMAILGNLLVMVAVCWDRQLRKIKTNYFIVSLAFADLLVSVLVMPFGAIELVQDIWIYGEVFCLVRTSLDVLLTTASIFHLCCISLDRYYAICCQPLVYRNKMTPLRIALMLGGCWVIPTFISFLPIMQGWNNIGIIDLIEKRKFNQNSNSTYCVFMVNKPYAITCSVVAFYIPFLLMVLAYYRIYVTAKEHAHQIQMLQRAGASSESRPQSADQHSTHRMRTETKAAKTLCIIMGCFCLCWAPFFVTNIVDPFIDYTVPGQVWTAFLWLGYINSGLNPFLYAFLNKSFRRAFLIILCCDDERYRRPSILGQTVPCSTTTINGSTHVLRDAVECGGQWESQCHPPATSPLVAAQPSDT
Test [3] shares this target. The test can be described thus: Displacement of [3H]-GR113808 from human 5HT4E receptor at 10^-6 M after 30 mins by liquid scintillation counting.

Sequence of 5-hydroxytryptamine receptor 4 (O70528 whole entry): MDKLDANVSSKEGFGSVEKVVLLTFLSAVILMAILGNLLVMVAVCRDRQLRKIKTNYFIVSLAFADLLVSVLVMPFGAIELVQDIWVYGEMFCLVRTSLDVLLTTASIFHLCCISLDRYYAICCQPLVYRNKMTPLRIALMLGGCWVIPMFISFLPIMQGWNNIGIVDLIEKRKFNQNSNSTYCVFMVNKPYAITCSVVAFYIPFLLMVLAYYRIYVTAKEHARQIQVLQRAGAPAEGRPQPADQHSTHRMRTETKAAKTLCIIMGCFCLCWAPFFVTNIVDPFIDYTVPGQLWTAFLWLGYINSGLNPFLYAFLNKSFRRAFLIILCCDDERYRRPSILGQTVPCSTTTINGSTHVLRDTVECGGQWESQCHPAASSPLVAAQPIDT
Sequence of Acetylcholinesterase (O42275 whole entry): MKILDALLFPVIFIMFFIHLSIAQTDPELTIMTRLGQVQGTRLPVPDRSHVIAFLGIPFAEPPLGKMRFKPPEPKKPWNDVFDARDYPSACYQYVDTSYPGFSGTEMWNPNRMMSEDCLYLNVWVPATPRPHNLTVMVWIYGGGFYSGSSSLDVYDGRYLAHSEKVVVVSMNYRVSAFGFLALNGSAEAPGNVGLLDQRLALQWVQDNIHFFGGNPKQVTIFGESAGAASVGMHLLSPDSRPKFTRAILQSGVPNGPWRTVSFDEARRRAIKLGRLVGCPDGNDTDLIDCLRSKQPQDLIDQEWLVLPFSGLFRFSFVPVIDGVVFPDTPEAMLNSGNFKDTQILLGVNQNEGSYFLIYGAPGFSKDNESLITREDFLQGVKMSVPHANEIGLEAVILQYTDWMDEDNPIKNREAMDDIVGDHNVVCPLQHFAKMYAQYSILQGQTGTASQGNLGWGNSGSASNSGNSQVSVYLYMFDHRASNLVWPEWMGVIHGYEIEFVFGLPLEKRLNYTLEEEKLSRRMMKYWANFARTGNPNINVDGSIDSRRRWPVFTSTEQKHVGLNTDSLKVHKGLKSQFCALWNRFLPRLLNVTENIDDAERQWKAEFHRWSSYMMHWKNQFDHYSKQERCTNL

A word on the IC50: it is the concentration that gives 50% inhibition. The low end stands for greater potency, the high end for weaker potency. One may read the Ki as a dissociation constant, usually derived from enzyme kinetics or from competition with a known ligand. A lower Ki goes with a stronger hold on the target. In general, inhibition refers to the change of the read-out against control, counted positive when it falls. Lower therefore signals a response near the control. `Cc1csc2nc(OCC3CCN(Cc4ccccc4)CC3)c3cccn3c12` yielded an IC50 on Acetylcholinesterase of 165 nM. Moreover, the Ki in test [1] came to 22 nM. For the same compound, the inhibition was determined as 38% in test [2] and 98% in test [3].

Regarding `c1cc2c(OCC3CCN(CC4CCCC4)CC3)nc3ccsc3n2c1`, at Acetylcholinesterase, inhibition was half-maximal at 597 nM (IC50). Moreover, the inhibition constant (Ki) in test [1] is 44.8 nM. Besides, the results for the inhibition in test [2] and in test [3] were 39% and 100%, respectively.

Compound `c1ccc(CN2CCC(COc3nc4ccsc4n4cccc34)CC2)cc1` gave an IC50 against Acetylcholinesterase of 551 nM. This compound had a Ki in test [1] of 52.9 nM. Besides, the inhibition in test [2] turned out to be 30%; in test [3], 96%.

With `COc1ccc(CN2CCC(COc3nc4ccsc4n4cccc34)CC2)cc1`, the affinity in test [1] corresponds to a Ki of 216 nM.

With `c1cc2c(OCC3CCN(CC4CCCCC4)CC3)nc3ccsc3n2c1`, inhibition against Acetylcholinesterase was half-maximal at 206 nM (IC50). Besides, the inhibition constant (Ki) in test [1] was determined as 79.9 nM. For the same compound, the inhibition in test [2] stood at 22%; in test [3], 99%.

In test [1], `Fc1ccc(CN2CCC(COc3nc4ccsc4n4cccc34)CC2)cc1` showed a Ki of 99 nM.

As to `c1cc2c(OCC3CCN(Cc4ccncc4)CC3)nc3ccsc3n2c1`, the affinity in test [1], expressed as Ki, was 174 nM.

For the compound `CCCN1CCC(COc2nc3scc(C)c3n3cccc23)CC1`, it took 5000 nM to reach half-maximal inhibition against Acetylcholinesterase (IC50). This compound registered a Ki in test [1] of 6 nM.

`Cc1csc2nc(OCC3CCN(CC4CCCCC4)CC3)c3cccn3c12`: the IC50 against Acetylcholinesterase is 95.8 nM. In test [1], this compound showed a Ki of 4.2 nM. The inhibition in test [2] stood at 60%; in test [3], 99%.

As to `c1cc2c(OCC3CCN(CC4CCC4)CC3)nc3ccsc3n2c1`, the Ki in test [1] turned out to be 25.9 nM. In other words, the double-digit nanomolar range.

`Cc1csc2nc(OCC3CCN(CC4CCCC4)CC3)c3cccn3c12` gave an IC50 against Acetylcholinesterase of 553 nM. Affinity in test [1] was put at a Ki of 21.3 nM. The inhibition stood at 78% in test [2] and 100% in test [3].

With `c1cc2c(OCC3CCN(CC4CC4)CC3)nc3ccsc3n2c1`, the affinity in test [1] corresponds to a Ki of 53 nM.

The compound `c1ccc(CN2CCC(CCOc3nc4ccsc4n4cccc34)CC2)cc1` returned an IC50 against Acetylcholinesterase of 561 nM.

In test [1], `c1ccc(CCN2CCC(COc3nc4ccsc4n4cccc34)CC2)cc1` returned an inhibition constant (Ki) of 49.8 nM. This lies in the double-digit nanomolar range.

`c1ccc(CCCN2CCC(COc3nc4ccsc4n4cccc34)CC2)cc1`: in test [1], the affinity, expressed as Ki, was 75.8 nM.
